The source made the active and inactive calls. No cut-off for these calls is given here.
Legend:
[1] = system: MGC-803; experiment: Down regulation of Pcdc2 expression in human MGC-803 cells at 7.5 to 30 nM measured after 24 hrs by Western blot analysis; format: functional, cell-based; settings: dose 7.5-30 nM
[2] = system: MGC-803; experiment: Induction of apoptosis in human MGC-803 cells assessed as late apoptotic cells at 30 nM measured after 48 hrs by Annexin V-APC/PI double staining based flow cytometry assay (reference value: 1.05 %); format: functional, cell-based
[3] = system: MGC-803; experiment: Induction of G2/M phase cell cycle arrest in human MGC-803 cells assessed as upregulation of cyclinB1 protein expression at 7.5 to 30 nM measured after 48 hrs by western blot analysis; format: functional, cell-based; settings: dose 7.5-30 nM
[4] = system: MGC-803; experiment: Induction of cell cycle arrest in human MGC-803 cells assessed as accumulation at G2/M phase at 15 nM incubated for 24 hrs by propidium iodide staining based flow cytometry (reference value: 37.03 %); format: functional
[5] = system: HEK-293T; experiment: Cytotoxicity against human HEK293T cells assessed as reduction in cell viability; format: cell-based
[6] = system: MGC-803; experiment: Antiproliferative activity against human MGC-803 cells assessed as cell growth inhibition after 72 hrs by SRB assay; format: functional, cell-based; settings: MGC-803, 72 h
[7] = system: MGC-803; experiment: Inhibition of cell migration in human MGC-803 cells assessed as decrease in wound healing rate at 7.5 to 30 nM measured after 48 hrs by wound healing assay; format: functional, cell-based; settings: dose 7.5-30 nM
[8] = system: MGC-803; experiment: Induction of cell cycle arrest in human MGC-803 cells assessed as accumulation at S phase at 15 nM incubated for 24 hrs by propidium iodide staining based flow cytometry (reference value: 17.3 %); format: functional
[9] = target: Tubulin; experiment: Inhibition of tubulin polymerization (unknown origin) measured after 1 min by fluorescence assay; format: protein-complex assay, Homo sapiens; settings: read-out: IC50
[10] = system: MGC-803; experiment: Induction of apoptosis in human MGC-803 cells assessed as necrotic cells at 15 nM measured after 48 hrs by Annexin V-APC/PI double staining based flow cytometry assay (reference value: 0.57 %); format: functional, cell-based
[11] = system: MGC-803; experiment: Induction of apoptosis in human MGC-803 cells assessed as necrotic cells at 30 nM measured after 48 hrs by Annexin V-APC/PI double staining based flow cytometry assay (reference value: 0.57 %); format: functional, cell-based
[12] = organism: Danio rerio; experiment: Antiangiogenic activity in 30hpf transgenic Tg(flk:EGFP) zebra fish embryos assessed as reduction in number of intersegmental vessels by confocal fluorescence microscopy analysis; format: functional, organism-based; settings: Embryo, dose 0.1-0.6 µM
[13] = system: MGC-803; experiment: Induction of mitochondrial membrane potential loss in human MGC-803 cells after 48 hrs by JC-1 staining based flow cytometric analysis; format: functional, cell-based; settings: dose 7.5-30 nM
[14] = system: MGC-803; experiment: Induction of apoptosis in human MGC-803 cells assessed as increase in cleaved Caspase-3 expression incubated for 24 hrs by Western blot analysis; format: functional, cell-based; settings: dose 7.5-30 nM
[15] = system: U-937; experiment: Antiproliferative activity against human U-937 cells assessed as cell growth inhibition after 72 hrs by CCK8 assay; format: functional, cell-based; settings: U-937, 72 h
[16] = target: T1, Tubulin (Homo sapiens) (UniProt P68371+Q9H4B7+P0DPH7+P68366+Q13509+Q71U36+P04350+Q3ZCM7+P07437+P68363+Q9BQE3+Q6PEY2+Q13885+Q9BVA1+Q9BUF5); experiment: Inhibition of tubulin polymerization in human MGC-803 cells assessed as blockage of spindle formation at 30 nM measured after 48 hrs by Hoechst staining based confocal microscopy analysis; format: cell-based
[17] = system: MGC-803; experiment: Induction of apoptosis in human MGC-803 cells assessed as viable cells at 30 nM measured after 48 hrs by Annexin V-APC/PI double staining based flow cytometry assay (reference value: 92.1 %); format: functional, cell-based
[18] = system: MGC-803; experiment: Induction of cell cycle arrest in human MGC-803 cells assessed as accumulation at G1 phase at 30 nM incubated for 24 hrs by propidium iodide staining based flow cytometry (reference value: 45.67 %); format: functional
[19] = system: MGC-803; experiment: Induction of apoptosis in human MGC-803 cells assessed as early apoptotic cells at 30 nM measured after 48 hrs by Annexin V-APC/PI double staining based flow cytometry assay (reference value: 1.31 %); format: functional, cell-based
[20] = system: MGC-803; experiment: Induction of mitochondrial membrane potential loss in human MGC-803 cells at 7.5 nM after 48 hrs by JC-1 staining based flow cytometric analysis (reference value: 86 %); format: functional
[21] = system: MGC-803; experiment: Induction of apoptosis in human MGC-803 cells assessed as increase in Caspase-7 expression incubated for 24 hrs by Western blot analysis; format: functional, cell-based; settings: dose 7.5-30 nM
[22] = system: MGC-803; experiment: Induction of mitochondrial membrane potential loss in human MGC-803 cells at 15 nM after 48 hrs by JC-1 staining based flow cytometric analysis (reference value: 86 %); format: functional
[23] = system: MCF7; experiment: Antiproliferative activity against human MCF7 cells assessed as cell growth inhibition after 72 hrs by SRB assay; format: functional, cell-based; settings: MCF7, 72 h
[24] = system: MGC-803; experiment: Induction of apoptosis in human MGC-803 cells assessed as early apoptotic cells at 15 nM measured after 48 hrs by Annexin V-APC/PI double staining based flow cytometry assay (reference value: 1.31 %); format: functional, cell-based
[25] = system: MGC-803; experiment: Induction of cell cycle arrest in human MGC-803 cells assessed as accumulation at G1 phase at 15 nM incubated for 24 hrs by propidium iodide staining based flow cytometry (reference value: 45.67 %); format: functional
[26] = target: T1, Tubulin (Homo sapiens); experiment: Inhibition of tubulin polymerization in human MGC-803 cells; format: cell-based
[27] = system: MGC-803; experiment: Induction of cell cycle arrest in human MGC-803 cells assessed as accumulation at S phase at 30 nM incubated for 24 hrs by propidium iodide staining based flow cytometry (reference value: 17.3 %); format: functional

IC50 [6]: 16 nM | IC50 [9]: 1000 nM | IC50 [15]: 305 nM | inhibition [16]: Active | IC50 [23]: 23 nM | inhibition [26]: Active
Structure (SMILES): COc1ccc(/C=C\c2cc(OC)c(OC)c(OC)c2)cc1/C=C/C(=O)Nc1ccccc1N
Activity [1]: Active | Activity [2]: Active | Activity [3]: Active | Activity [4]: Dose-Dependent Effect | Activity ([4]; record 2): 48.16% | IC50 [5]: 352 nM | inhibition [7]: Active | Activity [8]: 12.7% | Activity [10]: Active | Activity [11]: Active | Activity [12]: Dose-Dependent Effect | Activity [13]: Dose-Dependent Effect | Activity [14]: Dose-Dependent Effect | Activity [17]: Active | Activity [18]: 2.21% | Activity [19]: Active | Activity [20]: 82.9% | Activity [21]: Dose-Dependent Effect | Activity [22]: 63.6% | Activity [24]: Active | Activity [25]: 39.14% | Activity [27]: 13.6%

Source: ChEMBL document CHEMBL4828751, “Discovery of novel tubulin/HDAC dual-targeting inhibitors with strong antitumor and antiangiogenic potency” (Eur J Med Chem, 2021)
